For three compounds, inhibition results are on record in publication PMC6478789, “A chemical toolbox for the study of bromodomains and epigenetic signaling” (Nature Communications, 2019).

Broadly, the inhibition is the drop in the measured response relative to a control, in per cent.

The test deals with T1, PRMT5 (Homo sapiens, UniProt O14744).
T1 construct: purchased DiscoverX BROMOscan (bromodomains); SGC in-house methyltransferase panel
Put plainly: Methyl transferase scintillation proximity assay. Conditions: average of two measurements, read-out: MTases Inhibition (%). It counts as biochemical. As to the method:
Assays measuring lysine and arginine methyl transferase activity have been described in Scheer et al.. A radioactivity-based scintillation proximity assay was used to monitor incorporation of a tritium-labeled methyl group into the biotinylated substrate of the methyl transferase. A 10-μl reaction containing ^3H-SAM and substrate at concentrations close to the apparent Km values for each enzyme was prepared. The reactions were quenched with 10 μl of 7.5 M guanidine hydrochloride; 180 μl of 20 mM Tris buffer (pH 8.0) were added; and the mixture was transferred to a 96-well FlashPlate and incubated for 1 h. The counts per minute (CPM) was measured on a TopCount plate reader. The CPM in the absence of compound or enzyme was defined as 100% activity and background (0%), respectively, for each dataset.
A general note: SPA uses beads or plates that emit light when radiolabelled molecules are held near them.

T1 sequence (O14744 whole entry): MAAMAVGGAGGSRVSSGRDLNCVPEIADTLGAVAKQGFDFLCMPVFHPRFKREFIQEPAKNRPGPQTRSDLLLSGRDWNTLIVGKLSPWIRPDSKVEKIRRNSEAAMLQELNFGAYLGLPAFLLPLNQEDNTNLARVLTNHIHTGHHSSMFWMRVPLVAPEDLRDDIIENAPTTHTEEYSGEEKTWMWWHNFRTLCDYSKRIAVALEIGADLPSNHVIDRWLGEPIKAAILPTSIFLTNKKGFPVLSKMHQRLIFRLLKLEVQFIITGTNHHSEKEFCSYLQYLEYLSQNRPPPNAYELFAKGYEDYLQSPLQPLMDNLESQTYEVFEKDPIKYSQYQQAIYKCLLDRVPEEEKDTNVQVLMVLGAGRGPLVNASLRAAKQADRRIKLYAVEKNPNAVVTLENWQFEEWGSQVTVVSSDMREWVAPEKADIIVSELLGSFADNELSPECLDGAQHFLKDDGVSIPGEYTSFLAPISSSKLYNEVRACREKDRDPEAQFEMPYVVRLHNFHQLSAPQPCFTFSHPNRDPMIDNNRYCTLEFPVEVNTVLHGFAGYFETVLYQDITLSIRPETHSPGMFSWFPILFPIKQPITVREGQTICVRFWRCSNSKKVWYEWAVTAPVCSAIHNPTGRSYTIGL
T1 sequence (Q9BQA1 whole entry partner): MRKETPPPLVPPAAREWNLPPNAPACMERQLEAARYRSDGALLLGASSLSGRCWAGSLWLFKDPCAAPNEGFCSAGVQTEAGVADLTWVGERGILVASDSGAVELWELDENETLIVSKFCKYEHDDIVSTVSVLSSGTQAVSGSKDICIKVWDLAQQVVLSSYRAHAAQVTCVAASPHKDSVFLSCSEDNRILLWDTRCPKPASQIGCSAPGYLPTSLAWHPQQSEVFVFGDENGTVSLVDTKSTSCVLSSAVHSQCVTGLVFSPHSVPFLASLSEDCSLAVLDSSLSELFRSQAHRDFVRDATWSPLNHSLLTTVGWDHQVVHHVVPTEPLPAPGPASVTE

With `CO[C@H]1CNC[C@@H](OCC2CCC(F)(F)CC2)[C@@H]1Nc1ncc(-c2cncc(C)c2)c2cc(C)c(=O)[nH]c12` [GSK8814], the inhibition at 10 µM was -2%.

As to `Cc1nnc2c3ccccc3c(N[C@@H](C)[C@H](c3ccccc3)N(C)C)nn12` [L-Moses], the inhibition at 10 µM is -3%. As to `CN(C)CCCOc1ccc(-c2cc(NCCCn3cccn3)nc(S(C)(=O)=O)n2)cc1` [TP-238], the inhibition at 10 µM was -12%.
